What all share (test): cell-based
Experiment [1] concerns the target hNav1.7 (Homo sapiens, UniProt Q15858). The class given is cell-based. Particulars: IonWorks Quattro, use-dependent protocol, hNav1.7; read-out: IWQ Use Nav1.7.
The target of experiment [2] is hNav1.3 (Homo sapiens, UniProt Q9NY46). Particulars: IonWorks Quattro, use-dependent protocol, hNav1.3; read-out: IWQ Use Nav1.3.
Experiment [3] addresses hNav1.5 (Homo sapiens, UniProt Q14524). Particulars: IonWorks Quattro, use-dependent protocol, hNav1.5; read-out: IWQ Use Nav1.5.

Positions of bridges follow the written chain, without caps; N, C: chain ends. Residues, ends and D or L forms follow the SMILES beside them. Where only a bound is given, the exact number is not on record here.

Sequence of hNav1.5 (Q14524 whole entry, looked up): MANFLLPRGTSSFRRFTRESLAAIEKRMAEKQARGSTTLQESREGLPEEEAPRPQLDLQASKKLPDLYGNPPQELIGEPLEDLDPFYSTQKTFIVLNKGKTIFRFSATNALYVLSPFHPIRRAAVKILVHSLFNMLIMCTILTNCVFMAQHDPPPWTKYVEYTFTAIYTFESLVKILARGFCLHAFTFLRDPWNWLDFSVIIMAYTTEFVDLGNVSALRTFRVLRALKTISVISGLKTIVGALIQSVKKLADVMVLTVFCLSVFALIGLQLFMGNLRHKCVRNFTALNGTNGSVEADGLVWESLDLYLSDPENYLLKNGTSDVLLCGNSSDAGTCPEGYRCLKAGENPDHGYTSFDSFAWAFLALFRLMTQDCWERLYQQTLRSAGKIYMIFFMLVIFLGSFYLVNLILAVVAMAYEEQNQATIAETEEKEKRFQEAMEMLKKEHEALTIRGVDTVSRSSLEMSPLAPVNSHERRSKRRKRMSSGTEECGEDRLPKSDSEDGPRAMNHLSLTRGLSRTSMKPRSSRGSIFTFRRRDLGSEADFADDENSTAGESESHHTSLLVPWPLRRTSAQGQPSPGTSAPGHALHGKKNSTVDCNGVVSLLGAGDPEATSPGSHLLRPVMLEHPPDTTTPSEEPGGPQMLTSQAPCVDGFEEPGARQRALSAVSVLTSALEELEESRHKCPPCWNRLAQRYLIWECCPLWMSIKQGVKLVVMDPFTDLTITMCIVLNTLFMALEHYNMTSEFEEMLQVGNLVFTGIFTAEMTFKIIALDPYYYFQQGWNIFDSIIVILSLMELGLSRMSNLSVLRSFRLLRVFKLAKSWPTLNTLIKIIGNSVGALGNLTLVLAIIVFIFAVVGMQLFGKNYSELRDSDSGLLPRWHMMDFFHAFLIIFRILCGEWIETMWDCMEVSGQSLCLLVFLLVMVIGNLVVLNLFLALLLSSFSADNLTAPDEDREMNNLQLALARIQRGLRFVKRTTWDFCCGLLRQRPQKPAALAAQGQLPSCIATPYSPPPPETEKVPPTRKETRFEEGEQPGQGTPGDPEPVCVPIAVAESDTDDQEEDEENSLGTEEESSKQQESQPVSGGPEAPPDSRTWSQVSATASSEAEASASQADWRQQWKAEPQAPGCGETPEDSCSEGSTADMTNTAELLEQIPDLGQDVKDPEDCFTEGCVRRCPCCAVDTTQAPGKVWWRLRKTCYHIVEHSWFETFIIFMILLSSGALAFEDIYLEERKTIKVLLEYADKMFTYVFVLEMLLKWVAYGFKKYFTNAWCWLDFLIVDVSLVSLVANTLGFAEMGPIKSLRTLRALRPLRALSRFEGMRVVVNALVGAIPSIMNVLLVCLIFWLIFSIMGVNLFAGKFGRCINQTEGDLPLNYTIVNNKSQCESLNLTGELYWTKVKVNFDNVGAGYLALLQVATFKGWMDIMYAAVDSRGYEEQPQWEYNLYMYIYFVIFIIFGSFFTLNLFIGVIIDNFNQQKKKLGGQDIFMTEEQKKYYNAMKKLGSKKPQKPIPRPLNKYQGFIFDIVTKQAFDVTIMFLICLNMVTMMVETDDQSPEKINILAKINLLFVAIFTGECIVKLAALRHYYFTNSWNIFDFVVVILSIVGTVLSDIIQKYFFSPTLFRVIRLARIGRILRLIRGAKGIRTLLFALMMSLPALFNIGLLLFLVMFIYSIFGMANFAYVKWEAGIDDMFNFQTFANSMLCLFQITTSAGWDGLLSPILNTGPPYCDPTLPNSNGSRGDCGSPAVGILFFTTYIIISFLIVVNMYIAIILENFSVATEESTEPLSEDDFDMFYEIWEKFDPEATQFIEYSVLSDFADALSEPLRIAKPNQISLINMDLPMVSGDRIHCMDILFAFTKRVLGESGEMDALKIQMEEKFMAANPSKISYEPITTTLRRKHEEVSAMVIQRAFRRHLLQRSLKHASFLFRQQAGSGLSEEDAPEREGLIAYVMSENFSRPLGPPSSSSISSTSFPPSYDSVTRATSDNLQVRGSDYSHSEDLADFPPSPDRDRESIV
Sequence of hNav1.3 (Q9NY46 whole entry, looked up): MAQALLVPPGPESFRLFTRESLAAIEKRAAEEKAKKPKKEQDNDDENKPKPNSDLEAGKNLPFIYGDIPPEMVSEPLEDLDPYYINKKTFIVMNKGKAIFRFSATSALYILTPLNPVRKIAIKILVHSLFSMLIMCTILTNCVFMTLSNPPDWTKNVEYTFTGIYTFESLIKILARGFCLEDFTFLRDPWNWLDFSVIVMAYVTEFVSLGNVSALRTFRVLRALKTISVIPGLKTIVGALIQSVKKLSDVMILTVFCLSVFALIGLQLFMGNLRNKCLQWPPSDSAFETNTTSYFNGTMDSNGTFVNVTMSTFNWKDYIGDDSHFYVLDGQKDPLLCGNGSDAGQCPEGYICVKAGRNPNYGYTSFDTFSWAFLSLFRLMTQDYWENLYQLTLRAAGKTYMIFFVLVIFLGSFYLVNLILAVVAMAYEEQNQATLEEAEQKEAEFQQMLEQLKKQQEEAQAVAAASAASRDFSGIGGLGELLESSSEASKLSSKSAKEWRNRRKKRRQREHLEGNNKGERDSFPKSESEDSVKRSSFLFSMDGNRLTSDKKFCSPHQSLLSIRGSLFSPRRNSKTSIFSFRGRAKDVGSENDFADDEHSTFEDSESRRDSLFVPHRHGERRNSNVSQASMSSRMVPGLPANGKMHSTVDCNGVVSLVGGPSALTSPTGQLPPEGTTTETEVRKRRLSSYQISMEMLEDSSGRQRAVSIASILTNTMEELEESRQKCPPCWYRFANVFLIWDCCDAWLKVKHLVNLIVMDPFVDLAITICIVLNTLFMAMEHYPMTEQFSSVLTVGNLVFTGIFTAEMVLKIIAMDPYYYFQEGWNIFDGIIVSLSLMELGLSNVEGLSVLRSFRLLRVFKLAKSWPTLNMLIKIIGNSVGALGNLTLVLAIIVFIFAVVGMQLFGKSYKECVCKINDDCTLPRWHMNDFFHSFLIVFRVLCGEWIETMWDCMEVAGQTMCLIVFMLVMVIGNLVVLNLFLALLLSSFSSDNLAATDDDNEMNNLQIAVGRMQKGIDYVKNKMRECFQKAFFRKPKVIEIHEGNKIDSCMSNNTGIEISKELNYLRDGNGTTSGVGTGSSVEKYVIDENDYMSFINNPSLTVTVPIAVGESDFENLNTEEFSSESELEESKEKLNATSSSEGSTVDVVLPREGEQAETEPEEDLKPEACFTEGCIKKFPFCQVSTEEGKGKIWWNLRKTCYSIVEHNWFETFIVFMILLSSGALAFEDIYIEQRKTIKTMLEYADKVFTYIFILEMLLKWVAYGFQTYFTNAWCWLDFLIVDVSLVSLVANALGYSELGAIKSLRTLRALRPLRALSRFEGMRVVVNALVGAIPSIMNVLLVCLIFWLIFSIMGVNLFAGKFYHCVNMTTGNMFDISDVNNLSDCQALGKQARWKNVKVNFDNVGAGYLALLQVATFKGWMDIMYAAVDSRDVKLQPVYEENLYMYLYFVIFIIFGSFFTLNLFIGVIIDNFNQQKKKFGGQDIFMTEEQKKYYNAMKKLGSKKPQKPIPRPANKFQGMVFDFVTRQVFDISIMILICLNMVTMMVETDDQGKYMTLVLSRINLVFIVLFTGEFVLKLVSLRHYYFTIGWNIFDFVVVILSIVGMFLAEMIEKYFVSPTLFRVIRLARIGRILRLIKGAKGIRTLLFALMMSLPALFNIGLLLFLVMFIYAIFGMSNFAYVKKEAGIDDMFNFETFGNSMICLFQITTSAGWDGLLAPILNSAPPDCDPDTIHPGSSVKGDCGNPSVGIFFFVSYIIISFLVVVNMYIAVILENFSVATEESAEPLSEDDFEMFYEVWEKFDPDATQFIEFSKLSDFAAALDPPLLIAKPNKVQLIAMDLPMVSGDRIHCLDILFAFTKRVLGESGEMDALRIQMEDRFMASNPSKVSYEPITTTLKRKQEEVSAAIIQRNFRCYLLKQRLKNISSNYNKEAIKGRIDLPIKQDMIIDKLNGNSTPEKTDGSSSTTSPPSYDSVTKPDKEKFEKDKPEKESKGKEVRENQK

For `CC[C@H](C)[C@@H]1NC(=O)[C@@H]2CSSC[C@@H]3NC(=O)[C@H](C(C)C)NC(=O)[C@H](CC(C)C)NC(=O)[C@H](CC(N)=O)NC(=O)[C@@H]4CCCN4C(=O)[C@H](CCCNC(=N)N)NC(=O)[C@H](CSSC[C@H](NC(=O)[C@@H](N)CC(=O)O)C(=O)N[C@@H](CC(C)C)C(=O)NCC(=O)N[C@@H](C)C(=O)NCC(=O)N[C@@H](CCCNC(=N)N)C(=O)N[C@@H](CCCCN)C(=O)N2)NC(=O)[C@H](CSSC[C@@H](C(=O)N[C@@H](CCCCN)C(=O)N[C@@H](Cc2ccc(O)cc2)C(=O)N[C@H](C(=O)N[C@@H](Cc2ccccc2)C(N)=O)C(C)C)NC(=O)[C@H](Cc2c[nH]c4ccccc24)NC(=O)[C@H](CCCCN)NC(=O)[C@H](Cc2c[nH]cn2)NC(=O)[C@H]([C@@H](C)O)NC(=O)[C@H](CCCNC(=N)N)NC(=O)[C@H](CO)NC3=O)NC(=O)[C@H](CCCCN)NC(=O)[C@H](CC(=O)O)NC(=O)[C@H](CC(N)=O)NC(=O)[C@H](CC(=O)O)NC(=O)[C@@H]2CCCN2C1=O` [compound 697] (H-DCLGAGRKCIPDNDKCCRPNLVCSRTHKWCKYVF-NH2; disulfide 2-17, 9-23, 16-30), the IC50 in experiment [1] is 8.1 µM; in experiment [2], 4.4 µM; in experiment [3], above 5 µM.

With `CC[C@H](C)[C@@H]1NC(=O)[C@@H]2CSSC[C@@H]3NC(=O)[C@H](C(C)C)NC(=O)[C@H](CC(C)C)NC(=O)[C@H](CC(N)=O)NC(=O)[C@@H]4CCCN4C(=O)[C@H](CCCNC(=N)N)NC(=O)[C@H](CSSC[C@H](NC(=O)[C@@H](N)CC(=O)O)C(=O)N[C@@H](CC(C)C)C(=O)NCC(=O)N[C@@H](C)C(=O)N[C@@H](Cc4ccc(O)cc4)C(=O)N[C@@H](CCCNC(=N)N)C(=O)N[C@@H](CCCCN)C(=O)N2)NC(=O)[C@H](CSSC[C@@H](C(=O)N[C@@H](CCCCN)C(=O)N[C@@H](Cc2ccc(O)cc2)C(=O)N[C@H](C(=O)N[C@@H](Cc2ccccc2)C(N)=O)C(C)C)NC(=O)[C@H](Cc2c[nH]c4ccccc24)NC(=O)[C@H](CCCCN)NC(=O)[C@H](Cc2c[nH]cn2)NC(=O)[C@H]([C@@H](C)O)NC(=O)[C@H](CCCNC(=N)N)NC(=O)[C@H](CO)NC3=O)NC(=O)[C@H](CCCCN)NC(=O)[C@H](CC(=O)O)NC(=O)[C@H](CC(N)=O)NC(=O)[C@H](CC(=O)O)NC(=O)[C@@H]2CCCN2C1=O` [compound 698] (H-DCLGAYRKCIPDNDKCCRPNLVCSRTHKWCKYVF-NH2; disulfide 2-17, 9-23, 16-30), the IC50 in experiment [1] was 4.4 µM; in experiment [2], above 5 µM; in experiment [3] it was above 5 µM.

Regarding `CC[C@H](C)[C@@H]1NC(=O)[C@@H]2CSSC[C@@H]3NC(=O)[C@H](C(C)C)NC(=O)[C@H](CC(C)C)NC(=O)[C@H](CC(N)=O)NC(=O)[C@@H]4CCCN4C(=O)[C@H](CCCNC(=N)N)NC(=O)[C@H](CSSC[C@H](NC(=O)[C@@H](N)CC(=O)O)C(=O)N[C@@H](CC(C)C)C(=O)NCC(=O)N[C@@H](C)C(=O)N[C@@H](Cc4cn(C)c5ccccc45)C(=O)N[C@@H](CCCNC(=N)N)C(=O)N[C@@H](CCCCN)C(=O)N2)NC(=O)[C@H](CSSC[C@@H](C(=O)N[C@@H](CCCCN)C(=O)N[C@@H](Cc2ccc(O)cc2)C(=O)N[C@H](C(=O)N[C@@H](Cc2ccccc2)C(N)=O)C(C)C)NC(=O)[C@H](Cc2c[nH]c4ccccc24)NC(=O)[C@H](CCCCN)NC(=O)[C@H](Cc2c[nH]cn2)NC(=O)[C@H]([C@@H](C)O)NC(=O)[C@H](CCCNC(=N)N)NC(=O)[C@H](CO)NC3=O)NC(=O)[C@H](CCCCN)NC(=O)[C@H](CC(=O)O)NC(=O)[C@H](CC(N)=O)NC(=O)[C@H](CC(=O)O)NC(=O)[C@@H]2CCCN2C1=O` [compound 699], the IC50 was 0.34 µM in experiment [1], 0.32 µM in experiment [2] and above 5 µM in experiment [3].

As for `CSCC[C@@H]1NC(=O)[C@H](C)NC(=O)CNC(=O)[C@H](CC(C)C)NC(=O)[C@@H](NC(=O)[C@@H](N)CC(=O)O)CSSC[C@@H]2NC(=O)[C@@H]3CSSC[C@@H](C(=O)N[C@@H](CCCCN)C(=O)N[C@@H](Cc4ccc(O)cc4)C(=O)N[C@H](C(=O)N[C@@H](Cc4ccccc4)C(N)=O)C(C)C)NC(=O)[C@H](Cc4c[nH]c5ccccc45)NC(=O)[C@H](CCCCN)NC(=O)[C@H](Cc4c[nH]cn4)NC(=O)[C@H]([C@@H](C)O)NC(=O)[C@H](CCCNC(=N)N)NC(=O)[C@H](CO)NC(=O)[C@H](CSSC[C@H](NC(=O)[C@H](CCCCN)NC(=O)[C@H](CCCNC(=N)N)NC1=O)C(=O)N[C@@H](CC(=O)O)C(=O)N1CCC[C@H]1C(=O)N[C@@H](CC(=O)O)C(=O)N[C@@H](CC(N)=O)C(=O)N[C@@H](CC(=O)O)C(=O)N[C@@H](CCCCN)C(=O)N3)NC(=O)[C@H](C(C)C)NC(=O)[C@H](CC(C)C)NC(=O)[C@H](CC(N)=O)NC(=O)[C@@H]1CCCN1C(=O)[C@H](CCCNC(=N)N)NC2=O` [compound 700] (H-DCLGAMRKCDPDNDKCCRPNLVCSRTHKWCKYVF-NH2; disulfide 2-17, 9-23, 16-30), the IC50 in experiment [1] is 0.74 µM; in experiment [2], 0.84 µM; in experiment [3] it was 35 µM.

On to `CSCC[C@@H]1NC(=O)[C@H](C)NC(=O)CNC(=O)[C@H](CC(C)C)NC(=O)[C@@H](NC(=O)[C@@H](N)CC(=O)O)CSSC[C@@H]2NC(=O)[C@@H]3CSSC[C@@H](C(=O)N[C@@H](CCCCN)C(=O)N[C@@H](Cc4ccc(O)cc4)C(=O)N[C@H](C(=O)N[C@@H](Cc4ccccc4)C(N)=O)C(C)C)NC(=O)[C@H](Cc4c[nH]c5ccccc45)NC(=O)[C@H](CCCCN)NC(=O)[C@H](Cc4c[nH]cn4)NC(=O)[C@H]([C@@H](C)O)NC(=O)[C@H](CCCNC(=N)N)NC(=O)[C@H](CO)NC(=O)[C@H](CSSC[C@H](NC(=O)[C@H](CCCCN)NC(=O)[C@H](CCCNC(=N)N)NC1=O)C(=O)N[C@@H](CC(=O)O)C(=O)N1CCC[C@H]1C(=O)N[C@@H](CCC(=O)O)C(=O)N[C@@H](CC(N)=O)C(=O)N[C@@H](CC(=O)O)C(=O)N[C@@H](CCCCN)C(=O)N3)NC(=O)[C@H](C(C)C)NC(=O)[C@H](CC(C)C)NC(=O)[C@H](CC(N)=O)NC(=O)[C@@H]1CCCN1C(=O)[C@H](CCCNC(=N)N)NC2=O` [compound 701] (H-DCLGAMRKCDPENDKCCRPNLVCSRTHKWCKYVF-NH2; disulfide 2-17, 9-23, 16-30), for which the IC50 in experiment [1] is 0.97 µM; in experiment [2], 1.5 µM; in experiment [3] it was 43 µM.

Regarding `CC(C)C[C@@H]1NC(=O)[C@@H](NC(=O)[C@@H](N)CC(=O)O)CSSC[C@@H]2NC(=O)[C@@H]3CSSC[C@@H](C(=O)N[C@@H](CCCCN)C(=O)N[C@@H](Cc4ccc(O)cc4)C(=O)N[C@H](C(=O)N[C@@H](Cc4ccccc4)C(N)=O)C(C)C)NC(=O)[C@H](Cc4c[nH]c5ccccc45)NC(=O)[C@H](CCCCN)NC(=O)[C@H](Cc4c[nH]cn4)NC(=O)[C@H]([C@@H](C)O)NC(=O)[C@H](CCCNC(=N)N)NC(=O)[C@H](CO)NC(=O)[C@H](CSSC[C@H](NC(=O)[C@H](CCCCN)NC(=O)[C@H](CCCNC(=N)N)NC(=O)[C@H](Cc4ccccc4)NC(=O)[C@H](C)NC(=O)CNC1=O)C(=O)N[C@@H](CC(=O)O)C(=O)N1CCC[C@H]1C(=O)N[C@@H](CC(=O)O)C(=O)N[C@@H](CC(N)=O)C(=O)N[C@@H](CC(=O)O)C(=O)N[C@@H](CCCCN)C(=O)N3)NC(=O)[C@H](C(C)C)NC(=O)[C@H](CC(C)C)NC(=O)[C@H](CC(N)=O)NC(=O)[C@@H]1CCCN1C(=O)[C@H](CCCNC(=N)N)NC2=O` [compound 702] (H-DCLGAFRKCDPDNDKCCRPNLVCSRTHKWCKYVF-NH2; disulfide 2-17, 9-23, 16-30), the IC50 amounted to 0.72 µM in experiment [1], 0.37 µM in experiment [2] and 43 µM in experiment [3].

For `CC[C@H](C)[C@@H]1NC(=O)[C@@H]2CSSC[C@@H]3NC(=O)[C@H](C(C)C)NC(=O)[C@H](CC(C)C)NC(=O)[C@H](CC(N)=O)NC(=O)[C@@H]4CCCN4C(=O)[C@H](CCCNC(=N)N)NC(=O)[C@H](CSSC[C@H](NC(=O)[C@@H](N)CC(=O)O)C(=O)N[C@@H](CC(C)C)C(=O)NCC(=O)N[C@@H](C)C(=O)N[C@@H](Cc4ccccc4)C(=O)N[C@@H](CCCNC(=N)N)C(=O)N[C@@H](CCCCN)C(=O)N2)NC(=O)[C@H](CSSC[C@@H](C(=O)N[C@@H](CCCCN)C(=O)N[C@@H](Cc2ccc(O)cc2)C(=O)N[C@H](C(=O)N[C@@H](Cc2ccccc2)C(N)=O)C(C)C)NC(=O)[C@H](Cc2c[nH]c4ccccc24)NC(=O)[C@H](CCCCN)NC(=O)[C@H](Cc2c[nH]cn2)NC(=O)[C@H]([C@@H](C)O)NC(=O)[C@H](CCCNC(=N)N)NC(=O)[C@H](CO)NC3=O)NC(=O)[C@H](CCCCN)NC(=O)[C@H](CC(=O)O)NC(=O)[C@H](CC(N)=O)NC(=O)[C@H](CCC(=O)O)NC(=O)[C@@H]2CCCN2C1=O` [compound 703] (H-DCLGAFRKCIPENDKCCRPNLVCSRTHKWCKYVF-NH2; disulfide 2-17, 9-23, 16-30), the results for the IC50 in experiment [1], in experiment [2] and in experiment [3] were 0.61 µM, 0.2 µM and 45 µM, respectively.

`CC[C@H](C)[C@@H]1NC(=O)[C@@H]2CSSC[C@@H]3NC(=O)[C@H](C(C)C)NC(=O)[C@H](CC(C)C)NC(=O)[C@H](CC(N)=O)NC(=O)[C@@H]4CCCN4C(=O)[C@H](CCCNC(=N)N)NC(=O)[C@H](CSSC[C@H](NC(=O)[C@@H](N)CC(=O)O)C(=O)N[C@@H](CC(C)C)C(=O)NCC(=O)N[C@@H](C(C)C)C(=O)N[C@@H](CCSC)C(=O)N[C@@H](CCCNC(=N)N)C(=O)N[C@@H](CCCCN)C(=O)N2)NC(=O)[C@H](CSSC[C@@H](C(=O)N[C@@H](CCCCN)C(=O)N[C@@H](Cc2ccc(O)cc2)C(=O)N[C@H](C(=O)N[C@@H](Cc2ccccc2)C(N)=O)C(C)C)NC(=O)[C@H](Cc2c[nH]c4ccccc24)NC(=O)[C@H](CCC(=O)O)NC(=O)[C@H](Cc2c[nH]cn2)NC(=O)[C@H]([C@@H](C)O)NC(=O)[C@H](CCCNC(=N)N)NC(=O)[C@H](CO)NC3=O)NC(=O)[C@H](CCCCN)NC(=O)[C@H](CC(=O)O)NC(=O)[C@H](CC(N)=O)NC(=O)[C@H](CC(=O)O)NC(=O)[C@@H]2CCCN2C1=O` [compound 704] (H-DCLGVMRKCIPDNDKCCRPNLVCSRTHEWCKYVF-NH2; disulfide 2-17, 9-23, 16-30): the IC50 was 0.99 µM in experiment [1], above 5 µM in experiment [2] and 49 µM in experiment [3].

For the origin of these results see US9340590B2 (priority 2011, dated 2016).
